Here are results for 2 sequences from article PMC10762078, “Role of UPF1-LIN28A interaction during early differentiation of pluripotent stem cells” (Nature Communications, 2024).

Ends that are not written are not given here.

The subject of experiment [1] is CHA15 cells transcriptome / NMD targets. Description: RNA-seq of CPP-P8/CPP-P1-treated CHA15 cells with siControl or siLIN28A (Supplementary Fig. 6e). It is filed as cell-based, Homo sapiens. The method, then: For CPP-conjugated peptide delivery, HeLa, 293T, and PA-1 cells were incubated with CPP-conjugated peptides or CPP-FITC at 2 μM in DMEM with 10% FBS for 12 h a day before cell harvest. hPSCs were treated with CPP-conjugated peptides at 10 μM in mTeSR Plus Medium, and the peptide-containing medium was changed every day over 10 days. The ROCK inhibitor (Tocris Bioscience, Y-27632) treated-hPSCs were dissociated into single cells using Accutase (Merck, SCR005) and differentiated into ectoderm, mesoderm, and endoderm using the STEMdiff Trilineage Differentiation Kit ([…] Technologies, 05230) following the manufacturer’s protocol. Differentiated cells treated with CPP-conjugated peptides were analysed at 0, 3, and 5 days for ectoderm and endoderm, and at 0, 3, and 4 days for mesoderm.
Total RNA concentration was calculated using Quant-IT RiboGreen (Invitrogen, R11490). To assess the integrity of the total RNA, samples were run on a TapeStation RNA screentape (Agilent). Only high-quality RNA preparations with RNA integrity number greater than 7.0 were used for the RNA library construction. A library was independently prepared with 1 μg of total RNA from each sample using the Illumina TruSeq Stranded mRNA Sample Prep Kit (Illumina, 20020594). The first step in the workflow involves purifying poly‐A-containing mRNA molecules using poly‐T‐attached magnetic beads. Following purification, mRNA was fragmented into small pieces using divalent cations at elevated temperatures. The cleaved RNA fragments were copied into first-strand cDNA using SuperScript II reverse transcriptase (Invitrogen, 18064022) and random primers. This was followed by second-strand cDNA synthesis using DNA polymerase I, RNase H, and dUTP. These cDNA fragments underwent an end repair process, adding a single ‘A’ base and ligating the adapters. The products were purified and enriched via PCR to create the final cDNA library. The libraries were quantified using the KAPA Library Quantification Kits for Illumina Sequencing platforms according to the qPCR Quantification Protocol Guide (KAPA BIOSYSTEMS, KR0405) and qualified using the TapeStation D1000 ScreenTape (Agilent). Indexed libraries were then submitted to an Illumina NovaSeq (Illumina), and Macrogen Inc. performed paired-end (2 × 100 bp) sequencing.
We pre-processed the raw reads from the sequencer to remove low-quality reads and adapter sequences before analysis and aligned the processed reads to Homo sapiens (GRCh37) using HISAT v2.1.0[52]. HISAT utilises two indices for alignment (a global whole-genome index and tens of thousands of small local indexes). These two types of indices are constructed using the same Burrows-Wheeler transform (BWT)/graph FM index (GFM) as Bowtie2. The reference genome sequence of Homo sapiens (GRCh37) and the annotation data were downloaded from the NCBI database. Transcript assembly was processed using StringTie v1.3.4d[53],[54]. […] Differentially expressed genes (DEGs) were analysed by ratio of FPKM or using DESeq2 with read counts. Log2 fold-change value of the NMD targets[25],[32], three germ layer markers, miRNA targets, or SDGs was converted into cumulative frequency curve using the R function, ‘ecdf’ (version 4.0.5). Gene functional classification and Gene ontology (GO) were performed using g:Profiler[56]. […]
Scale bars, 100 μm . d (Corresponding to Fig. 6d) RT -qPCR was perform ed to evaluate the level of indicated transcripts upon the indicated peptide treatm ent in CHA15 cells. e T ranscriptom e analysis was perf orm ed using signif icantly changed transcripts (p < 0.05) f rom siLIN28A or siControl in the indicated CPP-peptide treated CHA15 cells. Scatter […]
(bottom panel), respectively. f Levels of m ature endogenous m iRNAs in CHA15 cells, which were regulated by LIN28A, were assessed using RT -qPCR. Cum ulative f raction of log2 fold change in the expression of genes regulated by let-7-5p and m iR-16- 5p was shown as CDF graphs. […]

Experiment [2] has as its target T1, His-LIN28A (Homo sapiens, UniProt Q9H9Z2).
T1 construct: purchased LS-bio LS-G637
T1 sequence (Q9H9Z2 1-209): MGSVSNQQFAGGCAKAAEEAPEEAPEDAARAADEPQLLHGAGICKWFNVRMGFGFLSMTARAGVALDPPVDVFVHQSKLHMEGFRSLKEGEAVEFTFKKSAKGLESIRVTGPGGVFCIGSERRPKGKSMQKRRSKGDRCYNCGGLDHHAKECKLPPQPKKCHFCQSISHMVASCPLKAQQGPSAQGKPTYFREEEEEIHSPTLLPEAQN
As to the kind of experiment: SPR kinetic evaluation of peptide binding to immobilised His-LIN28A. The method, then: (§1) For ligand immobilisation, the nitrilotriacetic acid (NTA) surface gold sensor chip (icluebio) was activated with 5 mM NiCl2 (Xantec) at a flow rate of 30 μL/min, following equalisation with 1× HBS-T buffer. His-LIN28A (LS-bio, LS-G637) was used as a ligand protein and was applied to a sensor chip at a flow rate of 10 μL/min for 40 min after dilution in 1× HEPES-buffered saline (HBS-T) buffer at a 1/20 ratio. Approximately 1000 resonance units (RU) were bonded to the sensor chip after ligand immobilisation. RU was measured using iMSPR-ProX (icluebio). An indigenous NTA sensor chip was used as a reference channel.
Kinetics assessment was performed for peptides with RU values greater than 5.
A general note: SPR reads the build-up and loss of mass on a sensor chip optically.

Experiment [3] deals with T1, His-LIN28A. Description: SPR analyte-ligand binding screening of eight peptides (P1-P8). The settings on record: SPR screening at 15 μM, 3 min association, 6 min dissociation. The method, then:
as §1
Analyte-ligand binding screening was performed by tethering the ligand and reference channels in the connected mode. […] After equalisation with 1× HBS-T buffer, the sensor chip was treated with each peptide for 3 min and then for 6 min with 1× HBS-T buffer for peptide dissociation.

[4] abbreviates: CHA15, absence of LIN28A (siRNA).

In the case of “KKKWCRKKKSSADEKRYRALKRTAERELLMNA [CPP-P8, CPP conjugated to P8]”, the “fraction deregulated in a LIN28A-independent manner” value in experiment [1] (7 (6+1) out of 95 (42+53)) worked out at 7.4%. For the same sequence, in experiment [1] (setting [4]), the “transcripts downregulated over 2-fold” value was found to be 2 transcripts and the “transcripts upregulated over 2-fold” value turned out to be 12. In addition, in experiment [1] (CHA15, presence of LIN28A), the “transcripts downregulated over 2-fold” value was 53 transcripts and the “transcripts upregulated over 2-fold” value amounted to 42 transcripts. Further, in experiment [1] (CHA15, siControl), the FEZF1-AS1 expression is 20.4087 FPKM, the LHX5-AS1 expression was 61.4319 FPKM and the LMO1 expression worked out at 15.1171 FPKM. In experiment [1] (CHA15, siLIN28A), the CUZD1 expression stood at 5.545 FPKM, the CXCL5 expression came to 5.9 FPKM and the MT2A expression is 11.8304 FPKM. The “transcriptome change in absence of LIN28A” value in experiment [1] (hESCs, siLIN28A) is recorded as “less impact on the transcriptome change, including NMD targets, in the absence of LIN28A”.

Turning to KKKWCRKKKSSADEKRYRALKRTAERELLMNA [P8], at His-LIN28A [2] (His-LIN28A ligand, peptide analyte 30 to 0.95 μM, HBS-T), the kd stood at 0.0137 s⁻¹. The kon at His-LIN28A [2] (His-LIN28A ligand, peptide analyte 30 to 0.95 μM, HBS-T, read-out: ka) stood at 2640 M⁻¹ s⁻¹. At His-LIN28A [2] (diverse concentrations), the “binding affinity to LIN28A” value is given as “high binding affinity to LIN28A”. Also, at His-LIN28A [3], the “binding affinity vs others” value is “significantly”.
